Source: patent publication US7985751B2, “Piperazine derivatives” (M's Science Corporation, priority 2005, dated 2011)
pIC50: −log10 of the molar value. Where a name gives a salt, the structure may show the parent alone.

What was measured:
σ1 receptors = target: T1, σ1 receptors (Homo sapiens, UniProt Q99720); test: σ1 receptor binding assay ((+)-[3H]pentazocine displacement, HEK-293 cell membranes); details: for affinity for sigma receptors, in particular sigma-1 receptors: result in words
T1 construct: incubating 50 μg of HEK-293 cell membranes with 10 nM (+)-[^3H]-pentazocine; endogenous in cells; host or cells: HEK-293
T1 sequence (Q99720 whole entry): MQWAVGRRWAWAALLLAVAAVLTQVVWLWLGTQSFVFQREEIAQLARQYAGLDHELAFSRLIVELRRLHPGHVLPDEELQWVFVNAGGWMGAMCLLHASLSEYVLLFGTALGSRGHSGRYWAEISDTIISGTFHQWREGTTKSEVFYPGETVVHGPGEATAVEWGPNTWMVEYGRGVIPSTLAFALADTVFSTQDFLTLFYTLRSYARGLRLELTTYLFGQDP
Protocol: (§1) Sigma 1 (σ1) and sigma 2 (σ2) receptor binding assays are carried out in membranes from HEK-293 (Human Embryonic Kidney) cells.
(§2) Confluent HEK-293 cells are harvested in PBS/5 mM EDTA. They are centrifuged at 2000 rpm for 5 min and then washed two times in PBS. Cells are homogenized in 20 mM Tris-HCL (pH=7.5) containing 5 mM EDTA, 0.5 mM PMSF and 0.5 μg/ml leupeptin using a Dounce homogenizer and sonicated for 5 minutes.
Nuclear debris and intact cells are removed by centrifugation at 3000 rpm for 10 minutes at 4° C. The supernatant is centrifuged at 12000 rpm for 30 minutes and the resulting pellet is resuspended in 25 mM Tris-HCL (pH=7.5), 25 mM Mg2Cl, 10% sucrose containing 0.5 mM PMSF, 2 mM AEBSF, 1 mM EDTA, 130 μM bestatin, 14 μM E-64, 1 μM leupeptin, and 0.3 mM aprotinin.
Proteins are determined using the Bio Rad Protein Assay Dye Reagent and the membranes are aliquoted and frozen at −80° C.
The binding assays are performed in 96-well plates.
σ1 receptors are labeled using the σ1 selective probe (+)-[^3H] Pentazocine (Bowen W D et al, Mol Neuropharmacol 3, 117-126, 1993).
Total binding is determined by incubating 50 μg of HEK-293 cell membranes with 10 nM (+)-[^3H]-pentazocine (Perkin-Elmer, 35 Ci/mmol) and assay buffer (50 mM Tris-HCl, pH=8.3) in a total volume of 200 μl. Non specific binding is determined in the presence of 10 μM unlabeled pentazocine. For competition experiments, 50 μl of displacing compound is added at 8 different concentrations. Incubations are carried out for 120 min at 37° C. Assays are terminated by dilution with ice-cold 10 mM Tris-HCl, pH=8.3 and vacuum filtration through glass fibers using a Skatron cell harvester from Molecular Devices. The filters are washed three times and the membrane-bound radioactivity is determined in a Microbeta scintillation counter.
Filters are soaked in 0.5% polyethyleneimine for 1 hour before use.
(§3) Specific binding is determined by subtraction of non specific binding from total binding. […]

σ2 receptors = target: T2, σ2 receptors (Homo sapiens, UniProt Q5BJF2); test: σ2 receptor binding assay ([3H]DTG displacement with σ1 masked by pentazocine, HEK-293 cell membranes); details: σ1 versus σ2 binding, result in words
T2 construct: incubating 50 μg of HEK-293 cell membranes with 10 nM [^3H]-DTG; endogenous in cells; host or cells: HEK-293
T2 sequence (Q5BJF2 whole entry): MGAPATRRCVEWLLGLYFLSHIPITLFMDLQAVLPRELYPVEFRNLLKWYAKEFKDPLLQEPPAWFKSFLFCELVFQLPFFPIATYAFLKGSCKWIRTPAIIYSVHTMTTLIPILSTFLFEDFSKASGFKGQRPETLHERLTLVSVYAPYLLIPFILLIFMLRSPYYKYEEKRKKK
Protocol: as §1, §2
Nuclear debris and intact cells are removed by centrifugation at 3000 rpm for 10 minutes at 4° C. […]
Proteins are determined using the Bio Rad Protein Assay Dye Reagent and the membranes are aliquoted and frozen at −80° C. […]
Total binding is determined by incubating 50 μg of HEK-293 cell membranes with 10 nM [^3H]-DTG (Perkin-Elmer, 58 Ci/mmol) in the presence of 10 μM pentazocine and assay buffer (50 mM Tris-HCl, pH=8.3) in a total volume of 200 μl. Non specific binding is determined in the presence of 10 μM unlabeled DTG. […] The filters are washed three times and the membrane-bound radioactivity is determined in a Microbeta scintillation counter. […]
as §3

[1] = system: sigma receptor-mediated neck dystonia in rats; details: microinjection, Nakazawa M et al 1999; cited from earlier work

SMILES | pIC50 (σ1 receptors) | affinity for sigma receptors, in particular sigma-1 receptors (σ1 receptors) | selectivity for σ1 receptor over σ2 receptor (σ2 receptors) | induction of neck dystonia [1]
COc1cc(CCN2CCN(CCCc3ccccc3)CC2)cc(OC)c1OC.Cl [1-[2-(3,4,5-trimethoxyphenyl)ethyl]-4-(3-phenylpropyl)piperazine hydrochloride] | > 6.52 | high affinity | highly selective | 
Cc1ccccc1NC(=N)Nc1ccccc1C [DTG, 1,3-di-2-tolyl-guanidine] |  |  |  | induced neck dystonia
Fc1ccccc1CCN1CCN(CCCc2ccccc2)CC1 [Example 4, 1-[2-(2-Fluorophenyl)ethyl]-4-(3-phenylpropyl)piperazine dihydrochloride] |  | especially good | especially good | 
COc1ccc(CCN2CCN(CCCc3ccccc3)CC2)cc1OC [SA-4503, 1-[2-(3,4-dimethoxyphenyl)ethyl]-4-(3-phenylpropyl)piperazine] |  |  |  | no effect
